Source: patent US6743816B2, “Imidazole derivatives with anti-inflammatory activity” (J. Uriach & Cia S.A., priority 2000, dated 2004)
Where a name gives a salt, the structure may show the parent alone.

Legend:
[1] = target: T1, human COX-1 (U-937 from human histiocitic lymphoma) (Homo sapiens, UniProt P23219); experiment: Inhibition of COX-1 activity in human cell line (PGE2 production after arachidonic acid); format: cell-based; conditions: 0.1 μM test compound; U-937 cells; PGE2 after 10 μM arachidonic acid
T1 construct: cell lines expressing human COX-1 (U-937 from human histiocitic lymphoma); endogenous in cells; host or cells: U-937 (human histiocytic lymphoma)
T1 sequence (P23219 24-599): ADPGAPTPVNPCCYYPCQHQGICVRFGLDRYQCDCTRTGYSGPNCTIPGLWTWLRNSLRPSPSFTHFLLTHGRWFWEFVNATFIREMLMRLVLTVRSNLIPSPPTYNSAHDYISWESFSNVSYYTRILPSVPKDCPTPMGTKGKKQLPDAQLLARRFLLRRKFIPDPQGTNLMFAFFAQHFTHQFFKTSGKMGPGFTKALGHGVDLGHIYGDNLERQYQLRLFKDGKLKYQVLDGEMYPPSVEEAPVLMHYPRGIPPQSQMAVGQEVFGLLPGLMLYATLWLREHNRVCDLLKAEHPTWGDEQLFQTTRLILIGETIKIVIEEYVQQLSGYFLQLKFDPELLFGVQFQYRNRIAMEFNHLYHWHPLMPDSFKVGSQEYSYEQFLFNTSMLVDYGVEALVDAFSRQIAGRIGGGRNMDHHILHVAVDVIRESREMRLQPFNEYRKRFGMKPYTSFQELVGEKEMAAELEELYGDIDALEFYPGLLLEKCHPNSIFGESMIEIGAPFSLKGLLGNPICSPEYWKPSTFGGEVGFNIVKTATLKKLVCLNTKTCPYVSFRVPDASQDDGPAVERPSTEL
Protocol: (§1) Inhibition of Cyclooxygenase-1 (COX-1) and Cyclooxygenase-2 (COX-2) Activity in Human Cell Lines
The inhibition of COX-1 and COX-2 is determined by assessing the PGE2 production after stimulation with arachidonic acid in cell lines expressing human COX-1 (U-937 from human histiocitic lymphoma) and human COX-2 (143.98.2 from human osteosarcoma), respectively.
(§2) The osteosarcoma-derived cells were cultured in 1 mL of DMEM culture medium supplemented with 10% fetal calf serum, in 24-well multidishes until confluence. U-937 cells were cultured in RPMI medium supplemented with 10% fetal calf serum in flasks.
(§3) To evaluate COX-2 activity, the medium was removed and replaced with Hepes-buffered saline solution (HBSS) without Ca^2+/Mg^2+ (2×10^5 cells/well). To evaluate COX-1 activity, the medium was removed and U-937 cells were resuspended to a final density of 3×10^6 cells/mL in HBSS without Ca^2+/Mg^2+ (1 mL/well, in 24-well multidishes). 1 μL of a solution of the test compound dissolved in DMSO or vehicle was added, and the samples were incubated for 15 min at 37° C. (5% CO2 and 95% humidity). Arachidonic acid was added (final concentration: 10 μM) and the samples were incubated for 10 min more. Next the reactions were quenched by adding indomethacin (8 mM, 30 μL). The amount of PGE2 in the supernatant was determined by specific enzymatic immunoassay (Kit Prostaglandin E2, Biotrak EIA system RPN222, Amersham Pharmacia Biotech). All the assays were performed in triplicate.

[2] = target: T2, human COX-2 (143.98.2 from human osteosarcoma) (Homo sapiens, UniProt P35354); experiment: Inhibition of COX-2 activity in human cell line (PGE2 production after arachidonic acid); format: cell-based; conditions: 0.1 μM test compound; 143.98.2 osteosarcoma cells; PGE2 after 10 μM arachidonic acid
T2 construct: human COX-2 (143.98.2 from human osteosarcoma); endogenous in cells; host or cells: 143.98.2 (human osteosarcoma)
T2 sequence (P35354 18-604): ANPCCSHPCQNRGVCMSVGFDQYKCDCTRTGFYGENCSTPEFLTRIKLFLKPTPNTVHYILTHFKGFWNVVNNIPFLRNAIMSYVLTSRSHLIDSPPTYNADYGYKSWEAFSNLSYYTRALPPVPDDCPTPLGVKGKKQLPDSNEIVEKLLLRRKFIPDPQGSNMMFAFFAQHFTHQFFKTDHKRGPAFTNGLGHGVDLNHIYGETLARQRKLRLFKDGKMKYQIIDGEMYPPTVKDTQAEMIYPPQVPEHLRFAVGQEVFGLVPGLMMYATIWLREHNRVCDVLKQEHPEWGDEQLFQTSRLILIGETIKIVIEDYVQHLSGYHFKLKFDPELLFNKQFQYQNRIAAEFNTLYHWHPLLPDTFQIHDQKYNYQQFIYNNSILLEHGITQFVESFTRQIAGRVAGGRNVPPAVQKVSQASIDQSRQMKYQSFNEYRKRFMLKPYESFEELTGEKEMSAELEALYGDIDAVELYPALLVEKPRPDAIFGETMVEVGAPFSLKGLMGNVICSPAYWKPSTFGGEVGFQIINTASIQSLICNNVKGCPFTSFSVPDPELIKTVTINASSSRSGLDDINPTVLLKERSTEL
Protocol: as §1, §2
as §3, with “(5% CO2 and 95% humidity).” left out

inhibition at 0.1 µM [1] [%] | inhibition at 0.1 µM [2] [%] | Structure (SMILES) | % Inhibition (0.1 μM) COX-1 [1] [%] | % Inhibition (0.1 μM) COX-2 [2] [%]
0 | 97 | CCOc1ccc(-c2c(Cl)ncn2-c2ccc(S(N)(=O)=O)cc2)cc1Cl [Example 13, 4-[4-Chloro-5-(3-chloro-4-ethoxyphenyl)imidazol-1-yl]benzenesulfonamide] | – | –
0 | 82 | CC(C)c1ccc(-c2c(Cl)ncn2-c2ccc(S(C)(=O)=O)cc2)cc1 [Example 9, 4-Chloro-5-(4-isopropylphenyl)-1-(4-methylsulfonylphenyl)imidazole] | – | –
2 | 57 | CS(=O)(=O)c1ccc(-n2cnc(Cl)c2-c2cc(F)cc(F)c2)cc1 [Example 4, 4-Chloro-5-(3,5-difluorophenyl)-1-(4-methylsulfonylphenyl)imidazole] | – | –
0 | 87 | CCOc1ccc(-c2c(Cl)ncn2-c2ccc(S(C)(=O)=O)cc2)cc1Cl [Example 6, 4-Chloro-5-(3-chloro-4-ethoxyphenyl)-1-(4-methylsulfonylphenyl)imidazole] | – | –
– | – | CCN(CC)c1ccc(-c2c(Cl)ncn2-c2ccc(S(C)(=O)=O)cc2)cc1 [Example 10, 4-Chloro-5-(4-N,N-diethylaminophenyl)-1-(4-methylsulfonylphenyl)imidazole] | 0 | 64
15 | 76 | CCOc1ccc(-c2c(Cl)ncn2-c2ccc(S(C)(=O)=O)cc2)cc1F [Example 3, 4-Chloro-5-(4-ethoxy-3-fluorophenyl)-1-(4-methylsulfonylphenyl)imidazole] | – | –
0 | 48 | CCCc1ccc(-c2c(Cl)ncn2-c2ccc(S(C)(=O)=O)cc2)cc1 [Example 16, 4-Chloro-1-(4-methylsulfonylphenyl)-5-(4-propylphenyl)imidazole] | – | –
– | – | CS(=O)(=O)c1ccc(-n2cnc(Cl)c2-c2ccc3c(c2)OCO3)cc1 [Example 7, 4-Chloro-5-[3,4-(methylenedioxy)phenyl]-1-(4-methylsulfonylphenyl)imidazole] | 1 | –
17 | 92 | COc1ccc(-c2c(Cl)ncn2-c2ccc(S(C)(=O)=O)cc2)cc1Cl [Example 5, 4-Chloro-5-(3-chloro-4-methoxyphenyl)-1-(4-methylsulfonylphenyl)imidazole] | – | –
0 | 88 | COc1cc(-c2c(Cl)ncn2-c2ccc(S(N)(=O)=O)cc2)ccc1F [Example 11, 4-[4-Chloro-5-(4-fluoro-3-methoxyphenyl)imidazol-1-yl]benzenesulfonamide] | – | –
8 | 87 | COc1ccc(-c2c(Cl)ncn2-c2ccc(S(N)(=O)=O)cc2)cc1Cl [Example 14, 4-[4-Chloro-5-(3-chloro-4-methoxyphenyl)imidazol-1-yl]benzenesulfonamide] | – | –
0 | 52 | CC(C)Oc1ccc(-c2c(Cl)ncn2-c2ccc(S(C)(=O)=O)cc2)cc1 [Example 1, 4-Chloro-5-(4-isopropoxyphenyl)-1-(4-methylsulfonylphenyl)imidazole] | – | –
0 | 92 | COc1c(Cl)cc(-c2c(Cl)ncn2-c2ccc(S(C)(=O)=O)cc2)cc1Cl [Example 8, 4-Chloro-5-(3,5-dichloro-4-methoxyphenyl)-1-(4-methylsulfonylphenyl)imidazole] | – | –
0 | 82 | COc1cc(-c2c(Cl)ncn2-c2ccc(S(C)(=O)=O)cc2)ccc1F [Example 2, 4-Chloro-5-(4-fluoro-3-methoxyphenyl)-1-(4-methylsulfonylphenyl)imidazole] | – | –
0 | 65 | CCOc1ccc(-c2c(Cl)ncn2-c2ccc(S(N)(=O)=O)cc2)cc1F [Example 12, 4-[4-Chloro-5-(4-ethoxy-3-fluorophenyl)imidazol-1-yl]benzenesulfonamide] | – | –
0 | 90 | COc1c(Cl)cc(-c2c(Cl)ncn2-c2ccc(S(N)(=O)=O)cc2)cc1Cl [Example 15, 4-[4-Chloro-5-(3,5-dichloro-4-methoxyphenyl)imidazol-1-yl]benzenesulfonamide Hydrochloride] | – | –
